For one assay, the target named is T1, human JAK1 (Homo sapiens, UniProt P23458).
T1 construct: human JAK1 (a.a. 837-1142); His tag (N); made in house; host or cells: insect cells (baculovirus)
As to the kind of experiment: In Vitro JAK Kinase Assay (HTRF, phosphorylation of a biotinylated peptide), JAK1. It is filed as biochemical. The settings on record: Table 5; catalytic domain a.a. 837-1142, assay of Example A. Put shortly: (§1)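 HTRF detection (SA-APC plus Eu-labeled anti-phosphotyrosine Py20, 40 min after EDTA stop) quantified biotinylated-peptide phosphorylation. Kinase reactions with human JAK1 or JAK2 catalytic domains lasted 1 h at room temperature.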

For another assay, the target named is T2, human JAK2 (Homo sapiens, UniProt O60674).
T2 construct: JAK2 (a.a. 828-1132); His tag (N); made in house; host or cells: insect cells (baculovirus)
As to the kind of experiment: In Vitro JAK Kinase Assay (HTRF, phosphorylation of a biotinylated peptide), JAK2. As to conditions: Table 5; assay of Example A. It is filed as biochemical. A digest of the protocol:
as §1

Some results are limits rather than exact numbers.

T2 sequence (O60674 828-1132): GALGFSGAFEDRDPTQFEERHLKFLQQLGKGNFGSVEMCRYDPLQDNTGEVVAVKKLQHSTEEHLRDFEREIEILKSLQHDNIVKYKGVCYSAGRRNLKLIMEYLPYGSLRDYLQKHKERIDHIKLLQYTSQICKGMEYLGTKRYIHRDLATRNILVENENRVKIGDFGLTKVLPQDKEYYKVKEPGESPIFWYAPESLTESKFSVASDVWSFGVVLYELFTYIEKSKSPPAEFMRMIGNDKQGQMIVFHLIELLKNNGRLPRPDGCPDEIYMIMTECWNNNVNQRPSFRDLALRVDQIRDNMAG
T1 sequence (P23458 849-1154): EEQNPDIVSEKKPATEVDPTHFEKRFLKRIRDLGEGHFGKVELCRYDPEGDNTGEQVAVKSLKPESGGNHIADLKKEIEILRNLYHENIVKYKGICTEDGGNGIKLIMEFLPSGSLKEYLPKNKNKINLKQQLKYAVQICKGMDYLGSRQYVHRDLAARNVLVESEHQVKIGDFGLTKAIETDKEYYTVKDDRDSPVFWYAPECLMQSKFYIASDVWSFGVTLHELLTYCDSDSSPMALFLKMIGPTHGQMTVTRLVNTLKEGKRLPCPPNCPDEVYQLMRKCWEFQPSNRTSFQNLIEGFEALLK

In turn, `N#CCC1(n2cc(-c3ncnc4[nH]ccc34)cn2)CN([C@H]2CC[C@@H](Oc3cc(C(=O)NC4CCC4)cc(C(F)(F)F)n3)CC2)C1` [Example 90, 2-[(cis-4-{3-(cyanomethyl)-3-[4-(7H-pyrrolo[2,3-d]pyrimidin-4-yl)-1H-pyrazol-1-yl]azetidin-1-yl}cyclohexyl)oxy]-N-cyclobutyl-6-(trifluoromethyl)isonicotinamide bis(trifluoroacetate)] returned a half-maximal inhibitory concentration (IC50) on human JAK1 of less than 10 nM. Besides, on human JAK2, the “JAK2/JAK1 IC50 ratio” value is reported as “≧10”.
On the same counts, the results for `N#CCC1(n2cc(-c3ncnc4[nH]ccc34)cn2)CN([C@H]2CC[C@@H](Oc3cc(C(=O)N4CC(C#N)C4)cc(C(F)(F)F)n3)CC2)C1` [Example 91, 1-[2-[(cis-4-{3-(cyanomethyl)-3-[4-(7H-pyrrolo[2,3-d]pyrimidin-4-yl)-1H-pyrazol-1-yl]azetidin-1-yl}cyclohexyl)oxy]-6-(trifluoromethyl)isonicotinoyl]azetidine-3-carbonitrile bis(trifluoroacetate)] are less than 10 nM and “≧10”.
In the same order, the values of `N#CCC1(n2cc(-c3ncnc4[nH]ccc34)cn2)CN([C@H]2CC[C@@H](Oc3cc(CN4CCOCC4)cc(C(F)(F)F)n3)CC2)C1` [Example 92, {1-(cis-4-{[4-(morpholin-4-ylmethyl)-6-(trifluoromethyl)pyridin-2-yl]oxy}cyclohexyl)-3-[4-(7H-pyrrolo[2,3-d]pyrimidin-4-yl)-1H-pyrazol-1-yl]azetidin-3-yl}acetonitrile tris(trifluoroacetate)] are less than 10 nM and “≧10”.
In the same order, the values of `N#CCC1(n2cc(-c3ncnc4[nH]ccc34)cn2)CN([C@H]2CC[C@@H](Oc3cc(CN4CC[C@@H](O)C4)cc(C(F)(F)F)n3)CC2)C1` [Example 95, {1-(cis-4-{[4-{[(3R)-3-hydroxypyrrolidin-1-yl]methyl}-6-(trifluoromethyl)pyridin-2-yl]oxy}cyclohexyl)-3-[4-(7H-pyrrolo[2,3-d]pyrimidin-4-yl)-1H-pyrazol-1-yl]azetidin-3-yl}acetonitrile pentakis(trifluoroacetate)] are less than 10 nM and “≧10”.
At human JAK1, `N#CCC1(n2cc(-c3ncnc4[nH]ccc34)cn2)CN([C@H]2CC[C@@H](Oc3cc(CN4CC[C@H](O)C4)cc(C(F)(F)F)n3)CC2)C1` [Example 96, {1-(cis-4-{[4-{[(3S)-3-hydroxypyrrolidin-1-yl]methyl}-6-(trifluoromethyl)pyridin-2-yl]oxy}cyclohexyl)-3-[4-(7H-pyrrolo[2,3-d]pyrimidin-4-yl)-1H-pyrazol-1-yl]azetidin-3-yl}acetonitrile tris(trifluoroacetate)] gave a concentration for half-maximal inhibition (IC50) of less than 10 nM. For the same compound, at human JAK2, the “JAK2/JAK1 IC50 ratio” value is reported as “≧10”.
On the same counts, the results for `CC1(NCc2cc(O[C@H]3CC[C@@H](N4CC(CC#N)(n5cc(-c6ncnc7[nH]ccc67)cn5)C4)CC3)nc(C(F)(F)F)c2)COC1` [Example 98, {1-(cis-4-{[4-{[(3-methyloxetan-3-yl)amino]methyl}-6-(trifluoromethyl)pyridin-2-yl]oxy}cyclohexyl)-3-[4-(7H-pyrrolo[2,3-d]pyrimidin-4-yl)-1H-pyrazol-1-yl]azetidin-3-yl}acetonitrile tetrakis(trifluoroacetate)] are less than 10 nM and “≧10”.
On the same counts, the results for `N#CCC1(n2cc(-c3ncnc4[nH]ccc34)cn2)CN([C@H]2CC[C@@H](Oc3cc(Cn4ccnc4)cc(C(F)(F)F)n3)CC2)C1` [Example 99, {1-(cis-4-{[4-(1H-imidazol-1-ylmethyl)-6-(trifluoromethyl)pyridin-2-yl]oxy}cyclohexyl)-3-[4-(7H-pyrrolo[2,3-d]pyrimidin-4-yl)-1H-pyrazol-1-yl]azetidin-3-yl}acetonitrile tetrakis(trifluoroacetate)] are less than 10 nM and “≧10”.
On the same counts, the results for `N#CCC1(n2cc(-c3ncnc4[nH]ccc34)cn2)CN([C@H]2CC[C@@H](Oc3cc(Cn4cccn4)cc(C(F)(F)F)n3)CC2)C1` [Example 100, {1-(cis-4-{[4-(1H-pyrazol-1-ylmethyl)-6-(trifluoromethyl)pyridin-2-yl]oxy}cyclohexyl)-3-[4-(7H-pyrrolo[2,3-d]pyrimidin-4-yl)-1H-pyrazol-1-yl]azetidin-3-yl}acetonitrile tris(trifluoroacetate)] are less than 10 nM and “≧10”.

These data come from patent US9359358B2, “Cyclohexyl azetidine derivatives as JAK inhibitors” (Incyte Holdings Corporation, priority 2011, dated 2016).
